From patent US11186578B2, “Substituted pyrrolo[3,2-d]pyrimidines and pyrazolo[4,3-d]pyrimidines as tyrosine kinase inhibitors” (Shenzhen TargetRx, Inc., priority 2016, dated 2021)

Experiments:
[1] = male, Sprague-Dawley, rat, in vivo
[2] = Metabolic stability in human liver microsomes; type: in vitro ADME; details: pH 7.4, 1 μM compound, 0.5 mg/mL protein
Method: (§1) (2) Metabolic Stability Evaluation Experiments in Microsome:
(§2) 2) Preparation of phosphate buffer (100 mM, pH 7.4): 150 mL of pre-formulated 0.5 M potassium dihydrogen phosphate was taken and mixed with 700 mL of 0.5 M dipotassium hydrogen phosphate solution, and the pH of the mixture was adjusted to 7.4 with 0.5 M dipotassium hydrogen phosphate solution. Before use it was diluted by 5 times with ultrapure water, and magnesium chloride was added to obtain the phosphate buffer (100 mM), which contains 100 mM potassium phosphate, 3.3 mM magnesium chloride, and a pH of 7.4. […] 4) Preparation of stop solution: The stop solution was an acetonitrile solution containing 50 ng/mL propranolol hydrochloride and 200 ng/mL tolbutamide (internal standard). […] 6) Incubation of the sample: The stock solutions of the corresponding compounds were diluted to 0.25 mM with an aqueous solution containing 70% acetonitrile, which is used as a working solution and is ready for use. 398 μL of human liver microsomes dilution or rat liver microsome dilution was added to 96-well incubation plates (N=2), and 2 μL of 0.25 mM working solutions were added respectively, and evenly mixed. 7) Determination of metabolic stability: 300 μL of pre-cooled stop solution was added to each well of a 96-well deep well plate, which was placed on ice as a stop plate. The 96-well incubation plate and the NADPH regeneration system were placed in a 37° C. water bath, shaken at 100 rpm, and pre-incubated for 5 min. 80 μL of the incubation solution was taken from each well of the incubation plate, added to the stop plate, evenly mixed, and 20 μL of the NADPH regeneration system solution was added as 0 minute sample. Then, 80 μL of the NADPH regeneration system solution was added to each well of the incubation plate to start the reaction and start timing. […] 100 μL of the reaction solutions were taken at 10, 30, and 90 min, respectively, added to the stop place, and the reaction was terminated by vortexing for 3 min. The plate was centrifuged at 5000×g for 10 min at 4° C. 100 μL of the supernatant was taken and added into a 96-well plate to which 100 μL of distilled water was previously added, evenly mixed, and samples were analyzed by LC-MS/MS. 8) Data analysis: The peak area of the corresponding compounds and the internal standard was detected by LC-MS/MS system, and the ratio of the peak area of the compounds to the internal standard was calculated.

RAMOS = RAMOS IC50; type: cell-based; details: Homo sapiens
in vivo = details: male, Sprague-Dawley, rat
BTK = BTK (Homo sapiens (Human), UniProt Q06187); experiment: Kinase inhibition test (HTRF); type: biochemical; details: 1 nM BTK, 20 μM ATP
Sequence of BTK (Q06187 whole entry): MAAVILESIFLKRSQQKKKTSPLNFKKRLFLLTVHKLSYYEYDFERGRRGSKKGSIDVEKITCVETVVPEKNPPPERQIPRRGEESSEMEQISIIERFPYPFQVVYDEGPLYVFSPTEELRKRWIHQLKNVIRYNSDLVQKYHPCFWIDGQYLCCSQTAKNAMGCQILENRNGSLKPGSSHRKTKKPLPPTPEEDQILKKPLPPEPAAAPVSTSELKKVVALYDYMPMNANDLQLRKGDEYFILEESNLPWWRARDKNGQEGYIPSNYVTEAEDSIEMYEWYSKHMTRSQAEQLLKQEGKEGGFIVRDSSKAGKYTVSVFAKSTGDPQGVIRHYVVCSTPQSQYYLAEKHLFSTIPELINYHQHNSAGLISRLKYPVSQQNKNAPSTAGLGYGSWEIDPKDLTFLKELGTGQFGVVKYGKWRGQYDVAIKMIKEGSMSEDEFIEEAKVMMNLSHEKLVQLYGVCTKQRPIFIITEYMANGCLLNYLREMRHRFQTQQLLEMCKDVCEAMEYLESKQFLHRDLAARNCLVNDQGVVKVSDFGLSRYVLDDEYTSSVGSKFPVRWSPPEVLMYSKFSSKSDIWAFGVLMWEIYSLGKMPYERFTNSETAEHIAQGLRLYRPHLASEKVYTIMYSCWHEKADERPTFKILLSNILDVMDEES
Method: (1) Kinase Inhibition Test
1) Compound dilution: The test compounds were dissolved in DMSO to make a 10 mM stock solution. […] 2) Kinase assay: in a 10 μL reaction system (containing buffer 50 mM Hepes (pH 7.5), 5 mM MgCl2, 0.01 mM Na3VO4, 1% BSA) in a 384-well plate, 1 nM BTK, 1 μM biotin-TK peptide (from HTRF-TK kit) and 20 μM ATP were incubated at 23° C. for 90 minutes.

[3] = Metabolic stability in rat liver microsomes; type: in vitro ADME, SD rat; details: Sprague-Dawley, pH 7.4, 1 μM compound, 0.5 mg/mL protein
Method: as §1, §2

[4] = Pharmacokinetic experiments in rats; details: male, Sprague-Dawley, rat, in vivo

half-life at 1 μM [2] [min]	microsomal CLint at 1 μM [2] [µL/min/mg]	IC50 (RAMOS) [nM]	IC50 (BTK) [nM]	half-life at 1 μM [3] [min]	microsomal CLint at 1 μM [3] [µL/min/mg]	Compound	F [1] [%]	AUC(0-t) (in vivo; iv, 0.5 mg/kg) [ng·h/mL]	Cmax (in vivo; iv, 0.5 mg/kg) [ng/mL]	Tmax (in vivo; iv, 0.5 mg/kg) [min]	AUC(0-t) (in vivo; po, 10 mg/kg) [ng·h/mL]	Cmax (in vivo; po, 10 mg/kg) [ng/mL]	Tmax (in vivo; po, 10 mg/kg) [min]	AUC(0-t) ([4]; iv, 0.5 mg/kg) [ng·h/mL]	Cmax ([4]; iv, 0.5 mg/kg) [ng/mL]	Tmax ([4]; iv, 0.5 mg/kg) [min]	AUC(0-t) ([4]; po, 10 mg/kg) [ng·h/mL]	Cmax ([4]; po, 10 mg/kg) [ng/mL]	Tmax ([4]; po, 10 mg/kg) [min]
3.5	399	< 100	< 1	2.9	483	C=CC(=O)N1CCC[C@H](c2cn(-c3ccc(Oc4ccccc4)cc3)c3c(N)ncnc23)C1 [Example 4, (R)-1-(3-(4-amino-5-(4-phenoxyphenyl)-5H-pyrrolo[3,2-d]pyrimidin-7-yl)piperidin-1-yl)prop-2-en-1-one]	–	–	–	–	–	–	–	–	–	–	–	–	–
1.5	922	< 100	< 1	–	–	C=CC(=O)N1CCC[C@@H](c2nn(-c3ccc(Oc4ccccc4)cc3)c3c(N)ncnc23)C1 [Example 5, (R)-1-(3-(7-amino-1-(4-phenoxyphenyl)-1H-pyrazolo[4,3-d]pyrimidin-3-yl)piperidin-1-yl)prop-2-en-1-one]	–	–	–	–	–	–	–	–	–	–	–	–	–
1.3	1100	< 100	< 1	–	–	C=CC(=O)N1CCC[C@@H](c2cn(-c3ccc(Oc4ccccc4)cc3)c3c(N)ncnc23)C1 [Example 3, (S)-1-(3-(4-amino-5-(4-phenoxyphenyl)-5H-pyrrolo[3,2-d]pyrimidin-7-yl)piperidin-1-yl)prop-2-en-1-one]	–	–	–	–	–	–	–	–	–	–	–	–	–
12.5	111	< 100	< 1	4.1	338	C=CC(=O)N1CCC[C@H](c2nn(-c3ccc(Oc4ccccc4)cc3)c3c(N)ncnc23)C1 [Example 6, (S)-1-(3-(7-amino-1-(4-phenoxyphenyl)-1H-pyrazolo[4,3-d]pyrimidin-3-yl)piperidin-1-yl)prop-2-en-1-one]	–	–	–	–	–	–	–	–	–	–	–	–	–

Compound	half-life at 1 μM [2] [min]	microsomal CLint at 1 μM [2] [µL/min/mg]	IC50 (RAMOS) [nM]	IC50 (BTK) [nM]	half-life at 1 μM [3] [min]	microsomal CLint at 1 μM [3] [µL/min/mg]	F [1] [%]	AUC(0-t) (in vivo; iv, 0.5 mg/kg) [ng·h/mL]	Cmax (in vivo; iv, 0.5 mg/kg) [ng/mL]	Tmax (in vivo; iv, 0.5 mg/kg) [min]	AUC(0-t) (in vivo; po, 10 mg/kg) [ng·h/mL]	Cmax (in vivo; po, 10 mg/kg) [ng/mL]	Tmax (in vivo; po, 10 mg/kg) [min]	AUC(0-t) ([4]; iv, 0.5 mg/kg) [ng·h/mL]	Cmax ([4]; iv, 0.5 mg/kg) [ng/mL]	Tmax ([4]; iv, 0.5 mg/kg) [min]	AUC(0-t) ([4]; po, 10 mg/kg) [ng·h/mL]	Cmax ([4]; po, 10 mg/kg) [ng/mL]	Tmax ([4]; po, 10 mg/kg) [min]
C=CC(=O)N1CCC[C@@H](c2nc(-c3ccc(Oc4ccccc4)cc3)c3c(N)nccn23)C1 [Example 7, (R)-1-(3-(8-amino-1-(4-phenoxyphenyl)imidazo[1,5-a]pyrazin-3-yl)piperidin-1-yl)prop-2-en-1-one]	5.7	243	< 100	< 1	2.4	576	23.20	401	966	4.8	931	365	40.2	–	–	–	–	–	–
C=CC(=O)N1CCC[C@@H](n2nc(-c3ccc(Oc4ccccc4)cc3)c3c(N)ncnc32)C1 [Ibrutinib]	–	–	< 100	–	–	–	–	–	–	–	–	–	–	437	1230	4.8	727	250	30
